Data on ten compounds can be found in ChEMBL document CHEMBL5512649, “Drug development and potential targets for Cushing's syndrome” (Eur J Med Chem, 2024).

The target in assay [1] is Cyclin-dependent kinase 1 (Homo sapiens, UniProt P06493). Briefly: Inhibition of CDK1 (unknown origin).
For assay [2], the target named is DNA (cytosine-5)-methyltransferase 1 (Homo sapiens, UniProt P26358). As to the kind of experiment: Inhibition of DNMT1 (unknown origin).
Assay [3] concerns the target ATP-dependent translocase ABCB1 (Homo sapiens, UniProt P08183). Briefly: Inhibition of MDR1 (unknown origin).
For assay [4], the target named is T1, Histone acetyltransferase type B catalytic subunit (Homo sapiens, UniProt O14929).
T1 sequence (O14929 whole entry): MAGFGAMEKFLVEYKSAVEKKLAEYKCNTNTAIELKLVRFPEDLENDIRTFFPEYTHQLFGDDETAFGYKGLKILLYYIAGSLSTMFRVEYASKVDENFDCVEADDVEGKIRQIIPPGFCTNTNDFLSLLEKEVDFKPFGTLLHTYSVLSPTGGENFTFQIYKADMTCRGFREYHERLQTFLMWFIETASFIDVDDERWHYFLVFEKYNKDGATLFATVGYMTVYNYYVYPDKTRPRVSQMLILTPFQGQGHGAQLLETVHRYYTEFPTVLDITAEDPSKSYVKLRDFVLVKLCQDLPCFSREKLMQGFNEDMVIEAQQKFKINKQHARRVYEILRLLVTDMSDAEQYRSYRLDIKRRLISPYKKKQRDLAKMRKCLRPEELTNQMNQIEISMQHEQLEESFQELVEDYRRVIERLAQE
Briefly: Inhibition of HAT1 (unknown origin).

Assay [5] has as its target Cyclin-dependent kinase 9 (Homo sapiens, UniProt P50750). As to the kind of experiment: Inhibition of CDK9 (unknown origin).
The target in assay [6] is Nuclear factor NF-kappa-B complex (Homo sapiens, UniProt P19838+Q00653+Q04206). Briefly: Inhibition of NF-kappaB (unknown origin). The format is protein-complex assay.
Assay [7] has as its target Cyclin-dependent kinase 6 (Homo sapiens, UniProt Q00534). Briefly: Inhibition of CDK6 (unknown origin).
Assay [8] deals with Cyclin-dependent kinase 4 (Homo sapiens, UniProt P11802). Briefly: Inhibition of CDK4 (unknown origin).
Cyclin-dependent kinase 4, sequence (P11802 whole entry): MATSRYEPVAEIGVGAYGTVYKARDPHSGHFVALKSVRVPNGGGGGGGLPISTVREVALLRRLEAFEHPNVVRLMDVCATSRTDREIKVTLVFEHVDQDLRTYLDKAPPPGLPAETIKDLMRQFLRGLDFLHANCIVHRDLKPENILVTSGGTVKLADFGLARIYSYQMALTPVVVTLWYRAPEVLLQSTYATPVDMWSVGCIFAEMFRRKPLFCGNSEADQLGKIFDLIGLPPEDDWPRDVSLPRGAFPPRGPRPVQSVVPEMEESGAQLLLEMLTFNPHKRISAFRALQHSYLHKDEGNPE

Nuclear factor NF-kappa-B complex, sequence (P19838 1-433 limits assumed): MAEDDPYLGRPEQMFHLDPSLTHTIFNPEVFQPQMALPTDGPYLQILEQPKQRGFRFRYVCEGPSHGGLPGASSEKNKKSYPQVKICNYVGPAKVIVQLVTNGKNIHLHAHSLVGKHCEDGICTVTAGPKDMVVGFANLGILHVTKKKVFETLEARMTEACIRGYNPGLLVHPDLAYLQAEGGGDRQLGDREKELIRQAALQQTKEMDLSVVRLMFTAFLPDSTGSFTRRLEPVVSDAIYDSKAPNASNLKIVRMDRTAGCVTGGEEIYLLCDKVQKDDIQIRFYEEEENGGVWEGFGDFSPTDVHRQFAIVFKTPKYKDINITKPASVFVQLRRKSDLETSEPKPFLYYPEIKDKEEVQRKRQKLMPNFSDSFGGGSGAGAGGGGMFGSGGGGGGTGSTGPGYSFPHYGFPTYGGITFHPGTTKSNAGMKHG
Nuclear factor NF-kappa-B complex, sequence (Q00653 1-454 limits assumed): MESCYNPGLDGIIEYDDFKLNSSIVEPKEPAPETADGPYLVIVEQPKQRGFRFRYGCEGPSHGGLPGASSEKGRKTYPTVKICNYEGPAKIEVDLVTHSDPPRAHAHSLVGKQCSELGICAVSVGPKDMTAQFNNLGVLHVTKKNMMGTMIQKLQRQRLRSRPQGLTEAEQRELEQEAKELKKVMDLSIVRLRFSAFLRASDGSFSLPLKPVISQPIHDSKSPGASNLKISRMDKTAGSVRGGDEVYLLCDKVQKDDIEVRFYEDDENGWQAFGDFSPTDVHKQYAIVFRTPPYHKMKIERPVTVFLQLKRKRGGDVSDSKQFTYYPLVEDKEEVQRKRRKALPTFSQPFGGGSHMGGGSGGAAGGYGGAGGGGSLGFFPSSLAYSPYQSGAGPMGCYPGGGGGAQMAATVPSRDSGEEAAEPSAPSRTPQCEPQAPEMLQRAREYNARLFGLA
Nuclear factor NF-kappa-B complex, sequence (Q04206 whole entry): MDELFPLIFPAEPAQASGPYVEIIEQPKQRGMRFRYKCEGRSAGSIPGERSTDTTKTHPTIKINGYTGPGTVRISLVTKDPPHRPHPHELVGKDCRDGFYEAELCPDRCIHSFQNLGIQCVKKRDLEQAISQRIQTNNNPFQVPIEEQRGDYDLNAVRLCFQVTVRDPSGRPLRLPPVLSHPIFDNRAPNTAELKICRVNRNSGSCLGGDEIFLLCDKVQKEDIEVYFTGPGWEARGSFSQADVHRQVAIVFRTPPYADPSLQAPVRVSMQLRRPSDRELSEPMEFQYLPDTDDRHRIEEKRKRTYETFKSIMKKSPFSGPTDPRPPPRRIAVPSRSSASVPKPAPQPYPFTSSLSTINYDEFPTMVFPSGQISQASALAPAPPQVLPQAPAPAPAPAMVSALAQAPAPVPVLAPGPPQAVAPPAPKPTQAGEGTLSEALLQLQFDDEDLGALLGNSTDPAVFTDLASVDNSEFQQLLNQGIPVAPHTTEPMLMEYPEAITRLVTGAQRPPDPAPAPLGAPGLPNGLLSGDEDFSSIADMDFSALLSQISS
Cyclin-dependent kinase 1, sequence (P06493 whole entry): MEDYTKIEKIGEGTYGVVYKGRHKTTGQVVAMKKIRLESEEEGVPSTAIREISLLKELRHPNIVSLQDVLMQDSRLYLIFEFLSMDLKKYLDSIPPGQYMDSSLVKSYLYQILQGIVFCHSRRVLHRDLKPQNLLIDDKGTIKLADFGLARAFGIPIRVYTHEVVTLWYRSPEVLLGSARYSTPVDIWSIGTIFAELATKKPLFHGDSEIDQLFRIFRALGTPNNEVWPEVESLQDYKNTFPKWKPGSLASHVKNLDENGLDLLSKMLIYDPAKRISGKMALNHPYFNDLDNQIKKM
Cyclin-dependent kinase 9, sequence (P50750 whole entry): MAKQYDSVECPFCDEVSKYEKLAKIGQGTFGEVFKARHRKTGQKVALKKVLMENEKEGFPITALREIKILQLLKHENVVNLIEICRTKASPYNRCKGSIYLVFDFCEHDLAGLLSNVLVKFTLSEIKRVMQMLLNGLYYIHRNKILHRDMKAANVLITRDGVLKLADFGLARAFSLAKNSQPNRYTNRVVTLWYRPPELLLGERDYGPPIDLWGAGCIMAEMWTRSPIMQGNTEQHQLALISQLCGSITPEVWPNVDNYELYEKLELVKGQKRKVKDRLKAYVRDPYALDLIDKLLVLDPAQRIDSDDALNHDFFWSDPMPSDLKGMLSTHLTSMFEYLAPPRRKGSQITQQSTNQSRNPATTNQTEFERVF
Cyclin-dependent kinase 6, sequence (Q00534 whole entry): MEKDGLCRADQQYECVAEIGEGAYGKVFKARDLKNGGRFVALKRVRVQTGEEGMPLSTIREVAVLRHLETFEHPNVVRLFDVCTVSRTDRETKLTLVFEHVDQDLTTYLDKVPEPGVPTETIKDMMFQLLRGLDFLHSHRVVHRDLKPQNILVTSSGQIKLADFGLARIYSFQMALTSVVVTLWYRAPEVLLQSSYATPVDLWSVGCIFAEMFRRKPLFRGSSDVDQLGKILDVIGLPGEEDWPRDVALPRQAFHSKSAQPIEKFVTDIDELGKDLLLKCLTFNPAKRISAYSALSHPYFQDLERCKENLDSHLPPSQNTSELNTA
ATP-dependent translocase ABCB1, sequence (P08183 whole entry): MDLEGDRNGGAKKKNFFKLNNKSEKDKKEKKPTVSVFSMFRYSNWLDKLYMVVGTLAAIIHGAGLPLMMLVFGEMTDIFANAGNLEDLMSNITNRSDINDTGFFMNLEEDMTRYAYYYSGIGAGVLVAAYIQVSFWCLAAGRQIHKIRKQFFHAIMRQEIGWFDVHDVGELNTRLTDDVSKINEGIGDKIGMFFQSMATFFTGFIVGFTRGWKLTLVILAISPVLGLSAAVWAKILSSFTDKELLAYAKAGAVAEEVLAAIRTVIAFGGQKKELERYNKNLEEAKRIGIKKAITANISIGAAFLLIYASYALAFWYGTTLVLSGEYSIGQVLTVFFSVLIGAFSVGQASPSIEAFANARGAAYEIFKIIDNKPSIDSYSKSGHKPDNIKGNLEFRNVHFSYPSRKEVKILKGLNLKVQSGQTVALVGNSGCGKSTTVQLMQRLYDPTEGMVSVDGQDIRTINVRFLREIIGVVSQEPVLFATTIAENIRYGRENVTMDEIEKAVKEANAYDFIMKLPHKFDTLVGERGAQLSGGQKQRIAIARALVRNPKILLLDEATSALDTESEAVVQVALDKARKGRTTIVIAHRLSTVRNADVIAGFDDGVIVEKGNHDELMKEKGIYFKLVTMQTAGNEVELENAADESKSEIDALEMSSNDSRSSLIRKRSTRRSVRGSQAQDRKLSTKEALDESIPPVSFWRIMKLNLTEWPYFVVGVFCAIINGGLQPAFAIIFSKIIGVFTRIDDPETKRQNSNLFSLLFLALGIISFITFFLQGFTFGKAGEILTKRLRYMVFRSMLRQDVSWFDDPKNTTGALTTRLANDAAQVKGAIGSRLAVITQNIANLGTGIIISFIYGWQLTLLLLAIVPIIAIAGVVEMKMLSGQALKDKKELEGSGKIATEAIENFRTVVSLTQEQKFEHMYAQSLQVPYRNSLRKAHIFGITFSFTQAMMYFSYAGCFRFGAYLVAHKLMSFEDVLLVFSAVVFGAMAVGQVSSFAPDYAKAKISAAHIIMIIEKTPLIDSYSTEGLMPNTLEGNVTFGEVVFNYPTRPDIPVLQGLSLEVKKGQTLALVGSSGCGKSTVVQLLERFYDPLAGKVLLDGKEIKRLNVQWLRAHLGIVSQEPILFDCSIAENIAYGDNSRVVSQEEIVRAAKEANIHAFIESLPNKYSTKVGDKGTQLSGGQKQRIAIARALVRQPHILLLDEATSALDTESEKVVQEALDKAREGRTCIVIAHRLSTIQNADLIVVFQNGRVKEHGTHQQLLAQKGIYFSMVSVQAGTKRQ

Broadly, the IC50 is the concentration at which inhibition is half-maximal. A lower IC50 goes with greater potency. `CNC(=O)c1nn(C)c2c1C(C)(C)Cc1cnc(Nc3ccc(N4CCN(C)CC4)cc3)nc1-2` [MILCICLIB] came in with an IC50 in assay [1] of 45 nM.

Consider `COc1cc(/C=C/C(=O)CC(=O)/C=C/c2ccc(O)c(OC)c2)ccc1O` [CURCUMIN], for which the IC50 in assay [2], in assay [3] and in assay [4] was at most 1000 nM each time.

As for `CN1CC[C@H](c2c(OP(=O)(O)O)cc(O)c3c(=O)cc(-c4ccccc4Cl)oc23)[C@H](O)C1` [TP-1287], inhibition in assay [5] was half-maximal at 10 nM (IC50).

Take `C[C@@H]1C[C@H]2[C@@H]3CCC4=CC(=O)C=C[C@]4(C)C3=CC[C@]2(C)[C@@]1(O)C(=O)CO` [VAMOROLONE]: the IC50 in assay [6] was 65.9 nM.

For `O=C(O)c1cc(/N=N/c2ccc(S(=O)(=O)Nc3ccccn3)cc2)ccc1O` [SULFASALAZINE], in assay [6], half-maximal inhibition (IC50) required 10000 nM.

`CC(C)c1c2cc(-c3nc(Nc4ccc(N5CCNCC5)cn4)ncc3F)ccc2nn1C` [CULMERCICLIB] came in with an IC50 in assay [7] of 2.4 nM.

The compound `O=C(Oc1ccccc1C(=O)O)c1ccccc1O` [SALSALATE] had an IC50 in assay [6] of at most 2000 nM.

As to `CC(C)C[C@H](NC(=O)[C@H](Cc1ccccc1)NC(=O)c1cnccn1)B(O)O` [BORTEZOMIB], the IC50 in assay [6] was at most 10 nM.

Compound `CC(C)[C@]12O[C@H]1[C@@H]1O[C@]13[C@]1(O[C@H]1C[C@H]1C4=C(CC[C@@]13C)C(=O)OC4)[C@@H]2O` [TRIPTOLIDE] came in with an IC50 in assay [6] of 10 nM.

Regarding `CN1CC[C@@H](c2c(O)cc(O)c3c(=O)cc(-c4ccc(C(F)(F)F)cc4Cl)oc23)[C@@H]1CO` [VORUCICLIB], in assay [8], the half-inhibitory concentration (IC50) turned out to be 400 nM.
